Experimental data reported in ChEMBL document CHEMBL4346715, “Antibacterial activity study of 1,2,4-triazole derivatives” (Eur J Med Chem, 2019).
≈ marks a conversion by molar mass, not a printed value.

Assays:
Plasmodium falciparum = test: Antiplasmodial activity against Plasmodium falciparum; assay type: functional, organism-based
Escherichia coli [1] = test: Antibacterial activity against Escherichia coli; assay type: functional
Streptococcus pneumoniae = test: Antibacterial activity against Streptococcus pneumoniae; assay type: functional
Bacillus subtilis [2] = test: Antibacterial activity against Bacillus subtilis; assay type: functional
Candida albicans = test: Antifungal activity against Candida albicans; assay type: functional
Staphylococcus aureus [3] = test: Antibacterial activity against Staphylococcus aureus; assay type: functional
Aspergillus niger = test: Antifungal activity against Aspergillus niger; assay type: functional
Clostridium tetani = test: Antibacterial activity against Clostridium tetani; assay type: functional
Trichophyton rubrum = test: Antifungal activity against Trichophyton rubrum; assay type: functional
Bacillus subtilis [4] = test: Antibacterial activity against Bacillus subtilis assessed as zone of inhibition; assay type: functional
Staphylococcus aureus [5] = test: Antibacterial activity against Staphylococcus aureus assessed as zone of inhibition; assay type: functional
Salmonella typhimurium = test: Antibacterial activity against Salmonella typhimurium assessed as zone of inhibition; assay type: functional, Salmonella enterica subsp. enterica serovar Typhimurium
Escherichia coli [6] = test: Antibacterial activity against Escherichia coli assessed as zone of inhibition; assay type: functional
Staphylococcus aureus [7] = test: Antibacterial activity against methicillin-resistant Staphylococcus aureus incubated for 18 hrs post 30 mins pre-diffusion by disk diffusion method; assay type: functional
Listeria innocua = test: Antibacterial activity against Listeria innocua incubated for 18 hrs post 30 mins pre-diffusion by disk diffusion method; assay type: functional
Micrococcus luteus = test: Antibacterial activity against Micrococcus luteus incubated for 18 hrs post 30 mins pre-diffusion by disk diffusion method; assay type: functional
Bacillus subtilis [8] = test: Antibacterial activity against Bacillus subtilis incubated for 18 hrs post 30 mins pre-diffusion by disk diffusion method; assay type: functional
Escherichia coli [9] = test: Antibacterial activity against Escherichia coli incubated for 18 hrs post 30 mins pre-diffusion by disk diffusion method; assay type: functional
Bacillus anthracis = test: Antibacterial activity against Bacillus anthracis incubated for 18 hrs post 30 mins pre-diffusion by disk diffusion method; assay type: functional

| SMILES | IC50 (Plasmodium falciparum) [µg/mL] | inhibition zone (IZ) (Bacillus subtilis [4]) | inhibition zone (IZ) (Staphylococcus aureus [5]) | inhibition zone (IZ) (Salmonella typhimurium) | inhibition zone (IZ) (Escherichia coli [6]) | other results |
| --- | --- | --- | --- | --- | --- | --- |
| Cc1nn(-c2ccccc2)c(-n2cncn2)c1-c1cc(-c2ccc(F)cc2)nc2nc3ccccc3n12 | 0.041 (≈ 0.0843 µM) | – | – | – | – | MIC (Escherichia coli [1]): 62.5 to 125 µg/mL (≈ 128 to 257 µM); MIC (Streptococcus pneumoniae): 62.5 to 125 µg/mL (≈ 128 to 257 µM); MIC (Bacillus subtilis [2]): 62.5 to 125 µg/mL (≈ 128 to 257 µM); MIC (Candida albicans): 100 to 500 µg/mL (≈ 206 to 1030 µM); MIC (Staphylococcus aureus [3]): 62.5 to 125 µg/mL (≈ 128 to 257 µM); MIC (Aspergillus niger): 100 to 500 µg/mL (≈ 206 to 1030 µM); MIC (Clostridium tetani): 62.5 to 125 µg/mL (≈ 128 to 257 µM); MIC (Trichophyton rubrum): 100 to 500 µg/mL (≈ 206 to 1030 µM) |
| C=C[C@H]1CN2CC[C@H]1C[C@H]2[C@H](O)c1ccnc2ccc(OC)cc12 [QUININE] | 0.268 (≈ 0.826 µM) | – | – | – | – | – |
| Fc1ccc(-c2nc(-c3ccccc3)c(-c3ccccc3)n2-n2c(-c3ccc(Cl)cc3)n[nH]c2=S)cc1 | – | 10 - 18 mm | 10 - 18 mm | 10 - 18 mm | 10 - 18 mm | – |
| S=c1[nH]nc(-c2ccc(Cl)cc2)n1-n1c(-c2ccc(Br)cc2)nc(-c2ccccc2)c1-c1ccccc1 | – | 10 - 18 mm | 10 - 18 mm | 10 - 18 mm | 10 - 18 mm | – |
| CN(C)[C@@H]1C(O)=C(C(N)=O)C(=O)[C@@]2(O)C(O)=C3C(=O)c4c(O)cccc4[C@@](C)(O)[C@H]3C[C@@H]12 [TETRACYCLINE] | – | 14 - 17 mm | 14 - 17 mm | 14 - 17 mm | 14 - 17 mm | MIC (Staphylococcus aureus [7]): 31 to 1000 µg/mL (≈ 69.8 to 2250 µM); MIC (Listeria innocua): 20 to 21 µg/mL (≈ 45 to 47.3 µM); MIC (Micrococcus luteus): 20 to 21 µg/mL (≈ 45 to 47.3 µM); MIC (Bacillus subtilis [8]): 20 to 21 µg/mL (≈ 45 to 47.3 µM); MIC (Escherichia coli [9]): 20 to 21 µg/mL (≈ 45 to 47.3 µM); MIC (Bacillus anthracis): 31 to 1000 µg/mL (≈ 69.8 to 2250 µM) |
